The values that follow come from patent publication US20230391714A1, “INHIBITORS OF THE INTERACTION BETWEEN TRIP8B AND HCN CHANNELS AND USES THEREOF FOR TREATING NEUROLOGICAL DISEASES AND DISORDERS” (Northwestern University, priority 2022, published 2023).

A word on the pIC50: it is −log10 of the IC50, conventionally taken in molar units.

pIC50: −log10 of the molar value. Like-named read-outs stand apart in the source and are kept apart here.

This test addresses TRIP8b-HCN1c40 (Homo sapiens (Human), UniProt Q8IYB4). As to the kind of experiment: TRIP8b-HCN1c40 AlphaScreen assay. The test is classed as binding. On the procedure: AlphaScreen Assay. 20 nM ofGST-tagged HCNlc40 protein (corresponding to the C terminal 40 amino acids of HCN1) was incubated with 200 nM of His-tagged TRIP8b(241-602) and varying concentrations of the test compound as described in our prior report (Han et al., 2015). After a 3 h incubation, anti-GST AlphaScreen acceptor beads were added for 1.5 h followed by AlphaScreen nickel chelate donor beads for 1.5 h. AlphaScreen signal was quantified using a PerkinElmer (Waltham, MA) EnSpire multimode plate reader.
Background: Alpha assays give light when donor and acceptor beads are brought close together.

[1] abbreviates: activity ranges, read-out: TRIP8b-HCN1c40 Alphascreen IC50 activity.
Where [2] appears, read: read-out: TRIP8b-HCN1c40 Alphascreen IC50.

Chain of TRIP8b-HCN1c40 (Q8IYB4 265-626): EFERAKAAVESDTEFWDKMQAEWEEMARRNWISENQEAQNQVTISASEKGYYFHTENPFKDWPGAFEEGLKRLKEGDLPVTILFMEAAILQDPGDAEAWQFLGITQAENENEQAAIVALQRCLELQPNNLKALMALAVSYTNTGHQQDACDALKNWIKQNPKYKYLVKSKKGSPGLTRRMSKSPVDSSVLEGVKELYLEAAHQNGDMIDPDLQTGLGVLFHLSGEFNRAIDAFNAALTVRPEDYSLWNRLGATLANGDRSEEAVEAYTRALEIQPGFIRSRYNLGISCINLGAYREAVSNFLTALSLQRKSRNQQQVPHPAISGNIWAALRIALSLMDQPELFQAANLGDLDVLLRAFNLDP

In the case of `CN1CCN(Cc2cc(-c3ccc(Cl)c(Cl)c3)ccc2OCCNCc2ccc(Cl)cc2)CC1` [NUCC-0201976], the negative-log IC50 (pIC50) under setting [1] was greater than 6.00 and the pIC50 under setting [2] is 6.08.
The corresponding values for `Cc1ccc(C(C)NC(=O)C(C)Oc2ccc(-c3cc(Cl)cc(-c4cc(Cl)cc(Cl)c4)c3)cc2CN2CCN(C)CC2)cc1` (stereo not drawn) [NUCC-0202050] are greater than 6.00 and greater than 6.13.
With `CN1CCN(Cc2cc(-c3cc(Cl)cc(Cl)c3)ccc2OCC(=O)Nc2ccc(Cl)c(Cl)c2)CC1` [NUCC-0202003], the pIC50 runs as follows: under setting [1], greater than 6.00; under setting [2], greater than 6.13.
Regarding `CN1CCN(Cc2cc(-c3ccc(Cl)c(Cl)c3)ccc2OCC(=O)NCc2cccc(Cl)c2)CC1` [NUCC-0201986], the negative logarithm of the IC50 (pIC50) is 5.70 to 6.00 under setting [1] and 5.96 under setting [2].
Turning to `CN1CCN(Cc2cc(-c3ccc(Cl)c(Cl)c3)ccc2OCC(=O)NCc2ccc(Cl)cc2)CC1` [NUCC-0201708], the pIC50 under setting [2] is greater than 6.13.
Turning to `CN1CCN(Cc2ccc(-c3ccc(Cl)c(Cl)c3)cc2OCC(=O)NCc2ccc(Cl)cc2)CC1` [NUCC-0202008], the pIC50 is 5.70 to 6.00 under setting [1] and 5.92 under setting [2].
Take `CN1CCN(Cc2cc(-c3ccc(Cl)c(Cl)c3)ccc2OCC(=O)NCc2ccccc2Cl)CC1` [NUCC-0201983]: the pIC50 is greater than 6.00 under setting [1] and 6.04 under setting [2].
For the molecule `CN1CCN(Cc2cc(-c3ccc(Cl)c(Cl)c3)ccc2OCC(=O)NCc2ccc(C(F)(F)F)cc2)CC1` [NUCC-0201982], the negative-log IC50 (pIC50) is 5.30 to 5.70 under setting [1] and 5.60 under setting [2].
Turning to `CN1CCN(Cc2cc(-c3ccc(F)cc3)ccc2OCC(=O)N(C)Cc2ccccc2)CC1` [NUCC-0201102], the negative-log IC50 (pIC50) under setting [2] is 4.04.
As to `CN1CCN(Cc2cc(-c3ccc(Cl)c(Cl)c3)ccc2OCC(=O)NCc2ccccc2)CC1` [NUCC-0201987], the negative logarithm of the IC50 (pIC50) runs as follows: under setting [1], 5.30 to 5.70; under setting [2], 5.60.
The matching figures for `Cc1ccc(NC(=O)COc2ccc(-c3ccc(Cl)c(Cl)c3)cc2CN2CCN(C)CC2)cc1` [NUCC-0202018]: 5.70 to 6.00 and 6.00.
The matching figures for `CN1CCN(Cc2cc(-c3ccc(Cl)cc3)ccc2OCC(=O)NCc2ccc(Cl)cc2)CC1` [NUCC-0201712]: 5.30 to 5.70 and 5.52.
Turning to `CC(Oc1ccc(-c2ccc(Cl)cc2)cc1CN1CCN(C)CC1)C(=O)NCc1ccc(Cl)cc1` (stereo not drawn) [NUCC-0202025], the pIC50 runs as follows: under setting [1], 5.70 to 6.00; under setting [2], 5.82.
Turning to `CN1CCN(Cc2cc(-c3ccc(Cl)c(Cl)c3)ccc2COC(=O)Nc2ccc3c(c2)OCO3)CC1` [NUCC-0202017], the negative logarithm of the IC50 (pIC50) under setting [1] was greater than 6.00 and the pIC50 under setting [2] is greater than 6.13.
The matching figures for `Cc1ccc(-c2ccc(OCC(=O)NCc3ccc(Cl)cc3)c(CN3CCC(N(C)C)CC3)c2)cc1` [NUCC-0201607]: 5.00 to 5.30 and 5.26.
The corresponding values for `COc1ccc(NC(=O)COc2ccc(-c3cccc(C)c3)cc2CN2CC[C@H](N)C2)cn1` [NUCC-0201619] are 4.40 to 4.70 and 4.62.
The corresponding values for `Cc1ccc(-c2ccc(OC(C)C(=O)NCc3ccc(Cl)cc3)c(CN3CCN(C)CC3)c2)cc1` (stereo not drawn) [NUCC-0202031] are 5.30 to 5.70 and 5.47.
On to `Cc1ccc(-c2ccc(OCC(=O)NCc3ccc(Cl)cc3)c(CN3CCOCC3)c2)cc1` [NUCC-0201604], for which the pIC50 was 5.00 to 5.30 under setting [1] and 5.09 under setting [2].
For the molecule `CN1CCN(Cc2cc(-c3c(Cl)cc(Cl)cc3Cl)ccc2OCC(=O)NCc2ccc(Cl)c(Cl)c2)CC1` [NUCC-0201969], the negative logarithm of the IC50 (pIC50) under setting [1] was 5.70 to 6.00 and the pIC50 under setting [2] was 5.96.
On to `CC(Oc1ccc(-c2ccc(O)cc2)cc1CN1CCN(C)CC1)C(=O)NCc1ccc(Cl)cc1` (stereo not drawn) [NUCC-0202030], for which the pIC50 is 4.70 to 5.00 under setting [1] and 4.85 under setting [2].
As to `COc1ccc(NC(=O)COc2ccc(-c3ccc(Cl)c(Cl)c3)cc2CN2CCN(C)CC2)cc1` [NUCC-0202019], the pIC50 reads like this: under setting [1], 5.70 to 6.00; under setting [2], 5.89.
The corresponding values for `CN1CCN(Cc2ccc(-c3ccc(C(F)(F)F)cc3)cc2OCC(=O)NCc2ccc(Cl)cc2)CC1` [NUCC-0202012] are 5.30 to 5.70 and 5.68.
